For 59 sequences, target mRNA inhibition results are on record in the OligoGym collection.

In one data set the target is IRF5. The following applies: ASO.
The target of another data set is DGAT2. The following applies: ASO.

“And” between values parts separate entries of the source, which are not always exact repeats. Equal entries are not always repeated. After the bases stand the sugars from the 5' end (letter, count) and the backbone: PS all phosphorothioate, else s phosphorothioate and o phosphodiester by linkage. Methylation of C is not given here. e = 2'-O-(2-methoxyethyl) (MOE); k = constrained ethyl (cEt); d = 2'-deoxy (DNA)

Consider “ATGAGTCATGGGCTGA (sugars kkkddddddddkdkdk, PS)”, for which the target mRNA inhibition in the data set with IRF5 (KARPAS-229, 4 µM) was found to be 0%. For the sequence “GATGGTGTTATCTCCG (sugars kkdddddddddkekek, PS)”, in the data set with IRF5 (KARPAS-229, 4 µM), the target mRNA inhibition is 0%. For “TTATCTCCGTCCTGGC (sugars kkddddddddddkeke, PS)”, the target mRNA inhibition with IRF5 (KARPAS-229, 4 µM) came out at 0%. Turning to “CACTGACACAGGCGGA (sugars kkdddddddddkekek, PS)”, the target mRNA inhibition in the data set with IRF5 (KARPAS-229, 4 µM) was found to be 0%.

With AATAGGAGTGAGACGA (sugars k3 d10 k3, PS), the target mRNA inhibition with IRF5 (KARPAS-229, 4 µM) was determined as 25%. For the sequence TGTGACTGTATTACCT (sugars k3 d10 k3, PS), the target mRNA inhibition was 38% with IRF5 (KARPAS-229, 0.44444 µM); 44% in the data set with IRF5 (KARPAS-229, 1.33333 µM); 81% and 66% with IRF5 (KARPAS-229, 4 µM); 78% in the data set with IRF5 (KARPAS-229, 12 µM). In the data set with IRF5 (KARPAS-229, 4 µM), “ATCACCACTGTGTACC (sugars kkkddddddddkekek, PS)” returned a target mRNA inhibition of 0%. In the case of “AGGTTCTTGGACTCTC (sugars kkddddddddddkeke, PS)”, the target mRNA inhibition with IRF5 (KARPAS-229, 4 µM) is 41%.

On to “GTCTGGCCCTTTTGGA (sugars k2 d9 e3 k2, PS)”, for which the target mRNA inhibition with IRF5 (KARPAS-229, 4 µM) worked out at 0%. In the case of “CAGGTTCTTGGACTCT (sugars kkdddddddddkekek, PS)”, the target mRNA inhibition in the data set with IRF5 (KARPAS-229, 4 µM) worked out at 0%. “TGAGTCATGGGCTGAG (sugars k3 d9 k3 e1, PS)” gave a target mRNA inhibition with IRF5 (KARPAS-229, 4 µM) of 11%. On the same count and under the same terms, the same measure for “AGGTTCTTGGACTCTC (sugars k3 d9 k3 e1, PS)”: 19%; for “CACATCTCCACATCAG (sugars kkddddddddddkeke, PS)”: 23%; for “GGTCTTGACCTCCCGC (sugars kkkddddddddkekek, PS)”: 29%. Still for that read-out and setting: for “CACTGACACAGGCGGA (sugars kkddddddddddkeke, PS)” the value was 0%; for CAACATCCATCAATGA (sugars k3 d10 k3, PS), 0%. “TTGTCTAGTGTCATGG (sugars kddddddddddkekek, PS)” displayed a target mRNA inhibition in the data set with IRF5 (KARPAS-229, 4 µM) of 44%.

As to “CGGTCTTTGAGGTCTG (sugars kdddddddddkekeke, PS)”, the target mRNA inhibition in the data set with IRF5 (KARPAS-229, 4 µM) was 40%. In the case of “GTGCTCTGTGGGCTCCTCCA (sugars e5 d10 e5, PS)”, the target mRNA inhibition with DGAT2 (HepG2, 2.5 µM) came to 69%; in the data set with DGAT2 (HepG2, 10 µM), 83%. “AGCACAGCGATGAGCCAGCA (sugars e5 d10 e5, PS)” returned a target mRNA inhibition in the data set with DGAT2 (HepG2, 0.12 µM) of 35%. In the case of “CTCCTCCCCTTGGCAGAGAA (sugars e5 d10 e5, PS)”, the target mRNA inhibition with DGAT2 (HepG2, 0.12 µM) was found to be 43%. Take “TGCACCTTGTATTAAATACT (sugars e5 d10 e5, PS)”: the target mRNA inhibition was 76% and 65% with DGAT2 (HepG2, 2.5 µM); 93% and 87% with DGAT2 (HepG2, 10 µM).

On to “CTTTGAGCATCCCCAATCCC (sugars e5 d10 e5, PS)”, for which the target mRNA inhibition with DGAT2 (HepG2, 2.5 µM) worked out at 14%; with DGAT2 (HepG2, 10 µM) it was 75%. As for “TCGGAGGAGAAGAGGCCTCG (sugars e5 d10 e5, PS)”, the target mRNA inhibition in the data set with DGAT2 (HepG2, 0.12 µM) turned out to be 60%. In the data set with DGAT2 (HepG2, 0.12 µM), “TCCTGGTGGTCAGCAGGTTG (sugars e5 d10 e5, PS)” displayed a target mRNA inhibition of 58%. On to “AGAGGATGCTGGATCCAGTG (sugars e5 d10 e5, PS)”, for which, in the data set with DGAT2 (HepG2, 0.12 µM), the target mRNA inhibition came to 45%. The same measure, in the same setting: the same measure for “GCTGGATGGGAAAGTAGTCT (sugars e5 d10 e5, PS)”: 22%. On to “TTGCCACTCCCATTCTTTGA (sugars e2 d13 e5, PS)”, for which the target mRNA inhibition with DGAT2 (HepG2, 0.12 µM) was found to be 57%.

For the sequence “GCTCATGAGAAGCTTAGAAG (sugars e5 d10 e5, PS)”, the target mRNA inhibition in the data set with DGAT2 (HepG2, 2.5 µM) is 66%; with DGAT2 (HepG2, 10 µM), 86%. “GCATTTTAACAAGATCCCCA (sugars e5 d10 e5, PS)”: in the data set with DGAT2 (HepG2, 0.12 µM), the target mRNA inhibition turned out to be 34%. In the data set with DGAT2 (HepG2, 0.12 µM), “GGTATCCAAAGATATAGTTC (sugars e5 d10 e5, PS)” came in with a target mRNA inhibition of 43%. Take “CTCAGTTCTTCCAACCAGTG (sugars e5 d10 e5, PS)”: the target mRNA inhibition in the data set with DGAT2 (HepG2, 2.5 µM) was 83% and 68%; with DGAT2 (HepG2, 10 µM), 93% and 91%.

With “CTTGCCAGGCATGGAGCTCA (sugars e5 d10 e5, PS)”, the target mRNA inhibition with DGAT2 (HepG2, 0.12 µM) was determined as 51%. For the sequence “CTTACTGTTCAGCAGTCTGC (sugars e5 d10 e5, PS)”, the target mRNA inhibition with DGAT2 (HepG2, 2.5 µM) stood at 57%; with DGAT2 (HepG2, 10 µM), 90%. “GTGGCTCTCTAGATAGGGTG (sugars e5 d10 e5, PS)”: the target mRNA inhibition is 68% in the data set with DGAT2 (HepG2, 2.5 µM) and 84% with DGAT2 (HepG2, 10 µM). For the sequence “AGGACAGAGGTTCAACATCC (sugars e5 d10 e5, PS)”, the target mRNA inhibition in the data set with DGAT2 (HepG2, 0.12 µM) was determined as 53%. As for “GGTAAGTCCTGATGATCCCC (sugars e5 d10 e5, PS)”, the target mRNA inhibition is 86% and 74% with DGAT2 (HepG2, 2.5 µM); 94% and 95% in the data set with DGAT2 (HepG2, 10 µM). Consider “AATGCCAATGCCTAGGT (sugars e3 d10 e4, PS)”, for which the target mRNA inhibition with DGAT2 (HepG2, 2.5 µM) is 70% and 69%; with DGAT2 (HepG2, 10 µM) it was 81% and 82%. In the case of “GCACTCTGTGATGCTCTGGA (sugars e5 d10 e5, PS)”, the target mRNA inhibition in the data set with DGAT2 (HepG2, 10 µM) is 90% and 84%. In the data set with DGAT2 (HepG2, 0.12 µM), “CCGCGCAGGACCCCGGAGTA (sugars e3 d14 e3, PS)” yielded a target mRNA inhibition of 71%. Take “TTCCTTTGAAATCCAATGCA (sugars e5 d10 e5, PS)”: the target mRNA inhibition in the data set with DGAT2 (HepG2, 2.5 µM) was 63%; with DGAT2 (HepG2, 10 µM), 86%. Regarding “AGGATGAACTAAATCCACCA (sugars e5 d10 e5, PS)”, the target mRNA inhibition with DGAT2 (HepG2, 2.5 µM) was 62%; with DGAT2 (HepG2, 10 µM), 90%. In the data set with DGAT2 (HepG2, 0.12 µM), “AGCTGCTTTTCCACCTTGGA (sugars e2 d16 e2, PS)” gave a target mRNA inhibition of 45%. Take “ACTCCCAGTACAAGGAAGGA (sugars e5 d10 e5, PS)”: the target mRNA inhibition with DGAT2 (HepG2, 0.12 µM) was 3%. In the case of “ACTGAGATCTCCAGCAGCAA (sugars e5 d10 e5, PS)”, the target mRNA inhibition is 50% and 61% and 56% with DGAT2 (HepG2, 2.5 µM); 90% and 93% and 92% with DGAT2 (HepG2, 10 µM).

In turn, “TCTCATCAAGAGATAACAGA (sugars e5 d10 e5, PS)” registered a target mRNA inhibition with DGAT2 (HepG2, 0.12 µM) of 6%. In the data set with DGAT2 (HepG2, 0.12 µM), “TCCAGACTGGATTTACTGAA (sugars e5 d10 e5, PS)” returned a target mRNA inhibition of 60%. Regarding “TGTGTTCCAGTCAAACACCA (sugars e5 d10 e5, PS)”, in the data set with DGAT2 (HepG2, 0.12 µM), the target mRNA inhibition worked out at 23%. Still for that read-out and setting: the same measure for “TTGCGGTTCCGCAGGGTGAC (sugars e5 d10 e5, PS)”: 70%; for “GGCAGGGCTTAGAATGGCTA (sugars e5 d10 e5, PS)”: 48%. As to “GTTTTGGGAACTCATGCATT (sugars e5 d10 e5, PS)”, the target mRNA inhibition in the data set with DGAT2 (HepG2, 0.12 µM) was determined as 50%. On the same count and under the same terms, the same measure for “TGGACCCATCGGCCCCAGGA (sugars e5 d10 e5, PS)”: 52%.

As for “GGTCTGGGAACAGCAGC (sugars e3 d10 e4, PS)”, the target mRNA inhibition is 72% and 76% with DGAT2 (HepG2, 2.5 µM); 79% and 82% with DGAT2 (HepG2, 10 µM). Take “ACCTCGATGTTACATTAAGG (sugars e5 d10 e5, PS)”: the target mRNA inhibition in the data set with DGAT2 (HepG2, 2.5 µM) was 68%; with DGAT2 (HepG2, 10 µM) it was 90%. The sequence “GCTGAGAGAGACAATGAGTA (sugars e5 d10 e5, PS)” displayed a target mRNA inhibition with DGAT2 (HepG2, 0.12 µM) of 54%. As to “GAGCACAGCGATGAGCCAGC (sugars e5 d10 e5, PS)”, the target mRNA inhibition with DGAT2 (HepG2, 2.5 µM) amounted to 43%; with DGAT2 (HepG2, 10 µM), 91%.

On to “AAGTAAGCCTCGGTGTCCTC (sugars e5 d10 e5, PS)”, for which the target mRNA inhibition with DGAT2 (HepG2, 2.5 µM) is 84%; with DGAT2 (HepG2, 10 µM), 69%. On to “GCTGATTACAAGCTGATTCT (sugars e5 d10 e5, PS)”, for which the target mRNA inhibition in the data set with DGAT2 (HepG2, 2.5 µM) was determined as 59%; in the data set with DGAT2 (HepG2, 10 µM), 76%. Consider “TTGCCACTCCCATTCTTTGA (sugars e3 d14 e3, PS)”, for which, in the data set with DGAT2 (HepG2, 0.12 µM), the target mRNA inhibition stood at 59%.
